This note sets out measurements from ChEMBL document CHEMBL5291721, “A preclinical secondary pharmacology resource illuminates target-adverse drug reaction associations of marketed drugs” (Nat Commun, 2023).

Test [1] addresses T1, Androgen receptor (Rattus norvegicus, UniProt P15207).
T1 sequence (P15207 whole entry): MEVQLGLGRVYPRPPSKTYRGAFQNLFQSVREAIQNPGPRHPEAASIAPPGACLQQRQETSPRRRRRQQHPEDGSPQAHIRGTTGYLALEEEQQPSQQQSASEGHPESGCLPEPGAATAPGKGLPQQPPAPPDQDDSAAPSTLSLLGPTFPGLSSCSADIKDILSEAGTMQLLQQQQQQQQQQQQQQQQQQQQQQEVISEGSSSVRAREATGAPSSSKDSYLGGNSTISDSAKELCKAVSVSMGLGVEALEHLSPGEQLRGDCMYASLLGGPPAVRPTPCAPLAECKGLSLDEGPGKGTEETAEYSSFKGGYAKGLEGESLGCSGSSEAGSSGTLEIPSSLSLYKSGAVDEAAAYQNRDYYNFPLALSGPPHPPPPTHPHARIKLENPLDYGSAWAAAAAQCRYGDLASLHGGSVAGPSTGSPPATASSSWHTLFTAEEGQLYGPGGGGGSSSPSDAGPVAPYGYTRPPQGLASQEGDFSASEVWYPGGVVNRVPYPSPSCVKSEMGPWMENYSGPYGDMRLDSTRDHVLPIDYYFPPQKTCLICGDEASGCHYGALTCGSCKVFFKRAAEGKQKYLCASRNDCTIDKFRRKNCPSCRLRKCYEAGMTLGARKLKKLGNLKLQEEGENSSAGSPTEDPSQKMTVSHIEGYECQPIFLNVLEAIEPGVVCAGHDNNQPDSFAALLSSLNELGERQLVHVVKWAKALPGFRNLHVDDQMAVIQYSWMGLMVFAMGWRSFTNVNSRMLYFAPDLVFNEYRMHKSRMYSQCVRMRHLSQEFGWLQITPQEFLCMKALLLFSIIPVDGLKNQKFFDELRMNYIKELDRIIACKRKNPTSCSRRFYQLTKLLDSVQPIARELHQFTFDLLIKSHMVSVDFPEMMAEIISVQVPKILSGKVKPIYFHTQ
It counts as functional.

In test [2] the target is T2, Histamine H1 receptor (Homo sapiens, UniProt P35367). It counts as functional, cell-based.
In test [3] the target is T3, Peroxisome proliferator-activated receptor gamma (Homo sapiens, UniProt P37231).
T3 sequence (P37231 whole entry): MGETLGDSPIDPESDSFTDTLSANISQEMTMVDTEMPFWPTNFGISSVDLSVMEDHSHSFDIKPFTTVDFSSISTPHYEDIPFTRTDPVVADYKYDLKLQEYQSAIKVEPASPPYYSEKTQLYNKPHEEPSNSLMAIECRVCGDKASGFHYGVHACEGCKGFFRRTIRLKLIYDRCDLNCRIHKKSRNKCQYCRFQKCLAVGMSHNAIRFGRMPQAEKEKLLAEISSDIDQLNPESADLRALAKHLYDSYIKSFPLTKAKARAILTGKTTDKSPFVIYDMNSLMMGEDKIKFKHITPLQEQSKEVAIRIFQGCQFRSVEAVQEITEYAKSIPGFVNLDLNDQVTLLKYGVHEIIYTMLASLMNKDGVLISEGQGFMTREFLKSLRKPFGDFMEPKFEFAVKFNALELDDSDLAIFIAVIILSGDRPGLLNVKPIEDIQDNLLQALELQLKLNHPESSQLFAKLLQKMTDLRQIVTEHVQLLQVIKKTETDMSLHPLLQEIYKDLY
It counts as functional.

The target in test [4] is T2, Histamine H1 receptor. It counts as functional, cell-based. The source holds these as a separate data set.
The target of test [5] is T1, Androgen receptor. It counts as functional. The source holds these as a separate data set.

SMILES strings stand for the structures.
Note: assay procedure not described here.

T2 sequence (P35367 whole entry): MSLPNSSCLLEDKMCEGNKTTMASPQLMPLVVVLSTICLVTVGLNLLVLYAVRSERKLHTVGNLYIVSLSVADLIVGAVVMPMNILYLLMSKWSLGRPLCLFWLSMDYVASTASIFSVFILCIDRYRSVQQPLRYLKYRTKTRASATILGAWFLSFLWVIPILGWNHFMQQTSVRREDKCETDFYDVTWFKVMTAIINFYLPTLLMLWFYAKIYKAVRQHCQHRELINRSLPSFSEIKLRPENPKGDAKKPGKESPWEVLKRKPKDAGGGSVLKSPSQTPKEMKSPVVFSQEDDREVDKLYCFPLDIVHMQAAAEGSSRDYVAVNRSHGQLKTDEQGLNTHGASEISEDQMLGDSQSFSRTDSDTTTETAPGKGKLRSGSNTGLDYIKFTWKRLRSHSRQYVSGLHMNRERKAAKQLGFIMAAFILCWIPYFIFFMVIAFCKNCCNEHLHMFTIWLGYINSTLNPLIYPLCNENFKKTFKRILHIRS

By AC50 is commonly meant the concentration giving half of the maximal activity seen. Low readings indicate greater potency, high ones weaker potency. As for `C[C@]12CC[C@@H]3c4ccc(O)cc4C[C@@H](CCCCCCCCC[S+]([O-])CCCC(F)(F)C(F)(F)F)[C@H]3[C@@H]1CC[C@@H]2O` (stereo partly specified) [FULVESTRANT], the AC50 at Androgen receptor [1] was greater than 30 µM; at Histamine H1 receptor [2], greater than 30 µM; in test [3] it was 14 µM; at Histamine H1 receptor [4], greater than 30 µM.

`C[C@H](Cc1ccc(O)c(O)c1)[C@@H](C)Cc1ccc(O)c(O)c1` [MASOPROCOL]: the concentration at half-maximal activity (AC50) at Histamine H1 receptor [2] was 23 µM; in test [3], 0.4 µM; at Histamine H1 receptor [4], greater than 30 µM.

Take `CCC(C)C(CC)C(N)=O` (stereo unspecified) [VALNOCTAMIDE]: the AC50 at Androgen receptor [1], on Histamine H1 receptor [2], on Histamine H1 receptor [4] and at Androgen receptor [5] was greater than 30 µM each time.
